Assays:
rat cerebral bNOS = test: inhibition of bNOS activity (nitrite production, Griess reaction); format: biochemical; details: for bNOS Inhibition, % Inhib: 15 min, average of 4 wells; for IC50: approximately, FIG. 1; for specificity/selectivity of bNOS inhibition: at the concentrations tested, conclusion in words
Procedure: Rat cerebral bNOS in working buffer was incubated with L-arginine and the nitrites produced after 15 minutes were measured using the Griess reaction. Results are presented as the % inhibition of bNOS activity as compared to a negative control (0% inhibition) and positive control (100% inhibition). Each point represents the average inhibition ± standard deviation of 4 wells.
Marine-derived imidazole and indole containing compounds were tested for their ability to inhibit rat cerebral NOS at a concentration range of 1.0 to 50 μM.
Evaluation of activity of bNOS was performed by measuring nitrite production using the Griess reaction (Greenberg, S. S., J. Xie, J. J. Spitzer, J. F. Wang, J. Lancaster, M. B. Grisham, D. R. Powers, T. D. Giles [1995] Life Sci. 57:1949-1961) following an incubation of purified bNOS with L-arginine according to the methods of Ohshima et al. (Ohshima, H., S. Oguchi, H. Adachi, S. Iida, H. Suzuki, T. Sugimura, H. Esumi [1992] Biochem. Biophys. Res. Comm. 183:238-244). All reactions were carried out in 96 well microtiter plates. Briefly, imidazole and indole compounds were tested in reaction buffer (80 mM HEPES, pH 7.3; 1.0 mM EDTA; 1.5 mM CaCl2) containing calmodulin (330 units/ml; Sigma Chemical Co.), dithiothreitol (1.3 mM), tetrahydrobiopterin (66 μM; Sigma), flavin adenine dinucleotide (16 μM; Sigma), and bovine brain nitric oxide synthase (1.67 units/ml; Sigma). The solutions were mixed and equilibrated at 37° C. for 2 minutes prior to the addition of L-arginine (113 μM; Sigma) and NADPH (200 μM; Sigma). Final reaction volume was 150 μl per well. The enzymatic reaction occurred at 37° C. for 15 minutes and nitrite formation detected by the addition of 100 μl of Greiss's reagent (1% sulfanilamide, 0.15% n-1-(naphthyl)-ethylenediamine dihydrochloride, 2.5% phosphoric acid; Sigma) and the color intensity determined by spectrophotometric absorbance at 540 nm (Spectra II; Tecan US Inc., Durham, N.C.).

calcineurin = calcineurin (Homo sapiens, UniProt Q08209); test: inhibition of calcineurin activity (PNPP dephosphorylation); format: biochemical; details: for IC50: PNPP substrate, 30° C., 1 hour; for potency on calcineurin compared with bNOS: comparison of IC50 for calcineurin and bNOS; for inhibition of calcineurin activity: at concentrations below 50 μM
Procedure: Inhibition of calcineurin, a calmodulin-dependent enzyme (Klee, C. B., H. Ren, X. Wang [1998] J. Biol. Chem. 273:13367-13370), by marine-derived imidazoles and indoles was tested as an indirect means of assessing the effect of these compounds on calmodulin. […] Neither hamacanthin-A nor dragmacidin were able to inhibit calcineurin activity by more than 33% at concentrations below 50 μM.
Calcineurin activity was measured by the colorimetric method based on the dephosphorylation of p-nitrophenyl phosphate (PNPP) (Greenberg, S. S., J. Xie, J. J. Spitzer, J. F. Wang, J. Lancaster, M. B. Grisham, D. R. Powers, T. D. Giles [1995] Life Sci. 57:1949-1961) in a buffer of 0.5 mM MnCl2, 1 mM dithiothreitol, 50 mM tris base (pH 7.5), 0.05 mM CaCl2, and 10 μg/ml calmodulin (Sigma). Briefly, marine-derived compounds in ethanol were transferred to 96-well plates, air dried and resuspended in the working buffer. Calcineurin was added to a final concentration of 2.75 μg protein/ml and the enzyme allowed to equilibrate at 30° C. for 10 minutes prior to the addition of substrate. PNPP was added (final concentration≈50 mM) and the reaction mixture incubated at 30° C. for 1 hour. The optical density was measured at 405 nm in a Spectra II spectrophotometer.

[1] = biological target: T1, iNOS (murine macrophage RAW 264.7 cells) (Mus musculus, UniProt P29477); test: inhibition of whole cell iNOS activity in LPS/IFN-γ stimulated RAW 264.7 cells (nitrites, Griess reaction); format: cell-based; details: RAW264.7, 24 hours, average of 4 wells, read-out: iNOS Inhibition, % Inhibit
T1 construct: host or cells: RAW 264.7
Procedure: Resultant nitrites in the TCM were measured by the Griess reaction and compared to stimulated cells incubated in the absence of test compound (0% inhibition) and unstimulated cells (100% inhibition). Each point represents the average inhibition of 4 wells±standard deviation.
Inhibition of whole cell iNOS activity by hamacanthin-A, dragmacidin and dragmacidin-D was tested to determine the specificity of the NOS inhibitory actions of these compounds.
RAW 264.7 cells were obtained from the American Type Culture Collection (Rockville, Md.) and maintained in tissue culture medium (TCM) (RPMI 1640 medium containing 100 U/ml penicillin, 100 μg/ml streptomycin, 60 μg/ml L-glutamine, 18 mM HEPES, 0.05 mg/ml gentamicin; Life Technologies, Gaithersburg, Md.) and supplemented with 10% rehatuin fetal bovine serum (Intergen Co., Purchase, N.Y.). Cells were subcultured at 3-4 day intervals, and used within 20 passages from the initial stock culture.
Test compounds were diluted in ethanol, aliquoted into appropriate wells of a 96 well microtiter plate and allowed to air dry for 1 hour at room temperature. RAW 264.7 cells were then subcultured into each well at a density of 5×10^4 cells/well in 200 μl of TCM containing lipopolysaccharide (1 ng/ml; Sigma) and interferon-γ (2 units/ml; PharMingen, San Diego, Calif.). Plates were incubated at 37° C., 5% CO2 for 24 hours. 150 μl of the TCM from each well was transferred to a second microtiter plate, 100 μl Griess reagent added to this TCM and the color intensity determined as above. Viability of the cells was determined by the methods of Mossman (Mossman, T. [1983] J. Immunol. Methods 65:55-63). Briefly, 150 μl of TCM containing 3-[4,5-dimethylthiazol-2-yl]-2,5-diphenyltetrazolium bromide (MTT, 2.5 mg/ml; Sigma) was added to each well containing the RAW 264.7 cells and incubated at 37° C., 5% CO2 for 3 hours. The medium was removed from all wells and replaced with 200 μl of acidified isopropyl alcohol (0.2% HCl). The plates were shaken for 15 minutes and the presence of the blue formazan was detected using a Spectra II spectrophotometer set at 570 nm and with a 650 nm reference filter.

| IC50 (rat cerebral bNOS) | IC50 (calcineurin) | inhibition at 2.5 µM [1] | inhibition at 5 µM [1] | inhibition at 10 µM [1] | inhibition at 25 µM [1] | inhibition at 50 µM [1] | inhibition of calcineurin activity (calcineurin) | Structure (SMILES) | bNOS Inhibition, % Inhib (rat cerebral bNOS; 1 μM) | bNOS Inhibition, % Inhib (rat cerebral bNOS; 5 μM) | bNOS Inhibition, % Inhib (rat cerebral bNOS; 10 μM) | bNOS Inhibition, % Inhib (rat cerebral bNOS; 50 μM) | specificity/selectivity of bNOS inhibition (rat cerebral bNOS) | potency on calcineurin compared with bNOS (calcineurin) | inhibitory effects on the production of NO (bNOS) (rat cerebral bNOS; 1.0 to 50 μM) |
| --- | --- | --- | --- | --- | --- | --- | --- | --- | --- | --- | --- | --- | --- | --- | --- |
| ~7.5 µM | – | 2.6% | -0.61% | 0.69% | 0.65% | 5.54% | ≤ 33% | O=C1NC(c2c[nH]c3cc(Br)ccc23)CN=C1c1c[nH]c2cc(Br)ccc12 (stereo not drawn) [Hamacanthin-A, hamacanthin-A] | 35.42% | 43.33% | 75.42% | 99.58% | able to specifically block the activity of bNOS | – | – |
| ~27 µM | 11.4 µM | – | – | – | – | – | – | Brc1ccc2c(-c3c[nH]c(-c4c[nH]c5ccccc45)n3)c[nH]c2c1 [Nortopsentin-C, nortopsentin-C] | 20.16% | 9.88% | 16.05% | 98.77% | not able to selectively inhibit rat cerebral bNOS | a concentration lower than its IC50 for bNOS | – |

More lines, now with the values behind:

| Structure (SMILES) | IC50 (rat cerebral bNOS) | IC50 (calcineurin) | inhibition at 2.5 µM [1] | inhibition at 5 µM [1] | inhibition at 10 µM [1] | inhibition at 25 µM [1] | inhibition at 50 µM [1] | inhibition of calcineurin activity (calcineurin) | bNOS Inhibition, % Inhib (rat cerebral bNOS; 1 μM) | bNOS Inhibition, % Inhib (rat cerebral bNOS; 5 μM) | bNOS Inhibition, % Inhib (rat cerebral bNOS; 10 μM) | bNOS Inhibition, % Inhib (rat cerebral bNOS; 50 μM) | specificity/selectivity of bNOS inhibition (rat cerebral bNOS) | potency on calcineurin compared with bNOS (calcineurin) | inhibitory effects on the production of NO (bNOS) (rat cerebral bNOS; 1.0 to 50 μM) |
| --- | --- | --- | --- | --- | --- | --- | --- | --- | --- | --- | --- | --- | --- | --- | --- |
| CC(c1cnc(N)[nH]1)c1ccc(O)c2[nH]cc(-c3cnc(-c4c[nH]c5cc(Br)ccc45)c(=O)[nH]3)c12 (stereo not drawn) [Dragmacidin-D, dragmacidin-D] | ~4 µM | 10 µM | -3.55% | -3.42% | -0.61% | 2.34% | 26.9% | – | 16.89% | 74.22% | 96.44% | 99.56% | able to specifically block the activity of bNOS | a more potent inhibitor of bNOS | – |
| O=C(c1nc(-c2c[nH]c3ccccc23)c[nH]1)c1c[nH]c2cc(O)ccc12 [Topsentin, topsentin] | – | – | – | – | – | – | – | – | 5.08% | 5.47% | -0.39% | 22.66% | not able to selectively inhibit rat cerebral bNOS | – | minimal inhibitory effects |
| CN1C[C@H](c2c[nH]c3c(Br)c(Br)cc(O)c23)NC[C@H]1c1c[nH]c2cc(Br)ccc12 (relative stereo) [Dragmacidin, dragmacidin] | ~20 µM | – | -3.94% | -8.44% | -6.23% | 3.16% | 15.8% | ≤ 33% | 38.94% | 3.54% | 32.74% | 90.27% | able to specifically block the activity of bNOS | – | – |
